Experimental data as given in US11718604B2, “4-amino-6-(1,3-benzodioxole)picolinates and their use as herbicides” (Dow AgroSciences LLC, priority 2018, dated 2023).

Assays:
Type in all cases: in vivo
[1] = system: CIRAR: Canada thistle (Cirsium arvense); experiment: Post-emergent herbicidal test, Canada thistle; conditions: post-emergence, 336 h, 14 days after application, read-out: Visual Growth Reduction (%) 14 Days After Application CIRAR
Experimental: (§1) Post-Emergent Test: Seeds or nutlets of the desired test plant species were planted in Sun Gro Metro-Mix® 360 planting mixture, which typically has a pH of 6.0 to 6.8 and an organic matter content of about 30 percent, in plastic pots with a surface area of 64 square centimeters (cm^2). When required to ensure good germination and healthy plants, a fungicide treatment and/or other chemical or physical treatment was applied. The plants were grown for 7-21 d in a greenhouse with an approximate 15 h photoperiod which was maintained at about 23-29° C. during the day and 22-28° C. during the night. Nutrients and water were added on a regular basis and supplemental lighting was provided with overhead metal halide 1000-Watt lamps as necessary. The plants were employed for testing when they reached the first or second true leaf stage.
(§2) A weighed amount, determined by the highest rate to be tested, of each test compound was placed in a 25 mL glass vial and was dissolved in 4 mL of a 97:3 v/v mixture of acetone and DMSO to obtain concentrated stock solutions. […] The concentrated stock solutions obtained were diluted with 20 mL of an aqueous mixture containing acetone, water, isopropyl alcohol, DMSO, Atplus 411F crop oil concentrate, and Triton® X-155 surfactant in a 48.5:39:10:1.5:1.0:0.02 v/v ratio to obtain spray solutions containing the highest application rates. Additional application rates were obtained by serial dilution of 12 mL of the high rate solution into a solution containing 2 mL of a 97:3 v/v mixture of acetone and DMSO and 10 mL of an aqueous mixture containing acetone, water, isopropyl alcohol, DMSO, Atplus 411F crop oil concentrate, and Triton X-155 surfactant in a 48.5:39:10:1.5:1.0:0.02 v/v ratio to obtain ½×, ¼×, ⅛× and 1/16× rates of the high rate. Compound requirements are based upon a 12 mL application volume at a rate of 187 liters per hectare (L/ha). Formulated compounds were applied to the plant material with an overhead Mandel track sprayer equipped with 8002E nozzles calibrated to deliver 187 L/ha over an application area of 0.503 square meters at a spray height of 18 inches (43 cm) above the average plant canopy height. Control plants were sprayed in the same manner with the solvent blank.
(§3) The treated plants and control plants were placed in a greenhouse as described above and watered by subirrigation to prevent wash-off of the test compounds. After 14 d, the condition of the test plants as compared with that of the untreated plants was determined visually and scored on a scale of 0 to 100 percent where 0 corresponds to no injury and 100 corresponds to complete kill.

[2] = system: DIGSA: large crabgrass (Digitaria sanguinalis); experiment: Post-emergent herbicidal test, large crabgrass; conditions: post-emergence, 336 h, 14 days after application, read-out: Visual Growth Reduction (%) 14 Days After Application DIGSA
Experimental: as §1, §2, §3

[3] = system: SETFA: giant foxtail (Setaria faberi); experiment: Post-emergent herbicidal test, giant foxtail; conditions: post-emergence, 336 h, 14 days after application, read-out: Visual Growth Reduction (%) 14 Days After Application SETFA
Experimental: as §1, §2, §3

[4] = system: BRSNN: oilseed rape, canola (Brassica napus); experiment: Post-emergent herbicidal test, oilseed rape; conditions: post-emergence, 336 h, 14 days after application, read-out: Visual Growth Reduction (%) 14 Days After Application BRSNN
Experimental: as §1, §2, §3

[5] = system: SORVU: shattercane (Sorghum bicolor); experiment: Post-emergent herbicidal test, shattercane; conditions: post-emergence, 336 h, 14 days after application, read-out: Visual Growth Reduction (%) 14 Days After Application SORVU
Experimental: as §1, §2, §3

[6] = system: ABUTH: velvetleaf (Abutilon theophrasti); experiment: Post-emergent herbicidal test, velvetleaf; conditions: post-emergence, 336 h, 14 days after application, read-out: Visual Growth Reduction (%) 14 Days After Application ABUTH
Experimental: as §1, §2, §3

[7] = system: EPHHL: wild poinsettia (Euphorbia heterophylla); experiment: Post-emergent herbicidal test, wild poinsettia; conditions: post-emergence, 336 h, 14 days after application, read-out: Visual Growth Reduction (%) 14 Days After Application EPHHL
Experimental: as §1, §2, §3

[8] = system: CYPES: yellow nutsedge (Cyperus esculentus); experiment: Post-emergent herbicidal test, yellow nutsedge; conditions: post-emergence, 336 h, 14 days after application, read-out: Visual Growth Reduction (%) 14 Days After Application CYPES
Experimental: as §1, §2, §3

[9] = system: ECHCG: barnyardgrass (Echinochloa crus-galli); experiment: Post-emergent herbicidal test, barnyardgrass; conditions: post-emergence, 336 h, 14 days after application, read-out: Visual Growth Reduction (%) 14 Days After Application ECHCG
Experimental: as §1, §2, §3

[10] = system: VIOTR: wild violet (Viola tricolor); experiment: Post-emergent herbicidal test, wild violet; conditions: post-emergence, 336 h, 14 days after application, read-out: Visual Growth Reduction (%) 14 Days After Application VIOTR
Experimental: as §1, §2, §3

[11] = system: IPOHE: ivyleaf morningglory (Ipomoea hederacea); experiment: Post-emergent herbicidal test, ivyleaf morningglory; conditions: post-emergence, 336 h, 14 days after application, read-out: Visual Growth Reduction (%) 14 Days After Application IPOHE
Experimental: as §1, §2, §3

COC(=O)c1nc(-c2cccc3c2OC(F)(F)O3)c(F)c(N)c1Cl [Compound 4]
pest or weed control at 17.5 g/ha ([1]; 17.5 g ai/ha): 80% | pest or weed control at 35 g/ha ([1]; 35 g ai/ha): 90% | pest or weed control at 70 g/ha ([1]; 70 g ai/ha): 95% | pest or weed control at 140 g/ha ([1]; 140 g ai/ha): 90% | pest or weed control at 17.5 g/ha ([2]; 17.5 g ai/ha): 0% | pest or weed control at 35 g/ha ([2]; 35 g ai/ha): 0% | pest or weed control at 70 g/ha ([2]; 70 g ai/ha): 0% | pest or weed control at 140 g/ha ([2]; 140 g ai/ha): 0% | pest or weed control at 17.5 g/ha ([3]; 17.5 g ai/ha): 0% | pest or weed control at 35 g/ha ([3]; 35 g ai/ha): 0% | pest or weed control at 70 g/ha ([3]; 70 g ai/ha): 0% | pest or weed control at 140 g/ha ([3]; 140 g ai/ha): 0% | pest or weed control at 17.5 g/ha ([4]; 17.5 g ai/ha): 85% | pest or weed control at 35 g/ha ([4]; 35 g ai/ha): 90% | pest or weed control at 70 g/ha ([4]; 70 g ai/ha): 95% | pest or weed control at 140 g/ha ([4]; 140 g ai/ha): 95% | pest or weed control at 17.5 g/ha ([5]; 17.5 g ai/ha): 0% | pest or weed control at 35 g/ha ([5]; 35 g ai/ha): 0% | pest or weed control at 70 g/ha ([5]; 70 g ai/ha): 0% | pest or weed control at 140 g/ha ([5]; 140 g ai/ha): 0% | pest or weed control at 17.5 g/ha ([6]; 17.5 g ai/ha): 70% | pest or weed control at 35 g/ha ([6]; 35 g ai/ha): 80% | pest or weed control at 70 g/ha ([6]; 70 g ai/ha): 80% | pest or weed control at 140 g/ha ([6]; 140 g ai/ha): 85% | pest or weed control at 17.5 g/ha ([7]; 17.5 g ai/ha): 0% | pest or weed control at 35 g/ha ([7]; 35 g ai/ha): 0% | pest or weed control at 70 g/ha ([7]; 70 g ai/ha): 0% | pest or weed control at 140 g/ha ([7]; 140 g ai/ha): 0% | pest or weed control at 17.5 g/ha ([8]; 17.5 g ai/ha): 0% | pest or weed control at 35 g/ha ([8]; 35 g ai/ha): 20% | pest or weed control at 70 g/ha ([8]; 70 g ai/ha): 50% | pest or weed control at 140 g/ha ([8]; 140 g ai/ha): 50% | pest or weed control at 17.5 g/ha ([9]; 17.5 g ai/ha): 0% | pest or weed control at 35 g/ha ([9]; 35 g ai/ha): 0% | pest or weed control at 70 g/ha ([9]; 70 g ai/ha): 0% | pest or weed control at 140 g/ha ([9]; 140 g ai/ha): 0% | pest or weed control at 17.5 g/ha ([10]; 17.5 g ai/ha): 0% | pest or weed control at 35 g/ha ([10]; 35 g ai/ha): 0% | pest or weed control at 70 g/ha ([10]; 70 g ai/ha): 20% | pest or weed control at 140 g/ha ([10]; 140 g ai/ha): 35% | pest or weed control at 17.5 g/ha ([11]; 17.5 g ai/ha): 0% | pest or weed control at 35 g/ha ([11]; 35 g ai/ha): 10% | pest or weed control at 70 g/ha ([11]; 70 g ai/ha): 10% | pest or weed control at 140 g/ha ([11]; 140 g ai/ha): 30%
